Experimental data reported in ChEMBL document CHEMBL1147660, “Discovery of SCH446211 (SCH6): a new ketoamide inhibitor of the HCV NS3 serine protease and HCV subgenomic RNA replication” (J Med Chem, 2006).
Numbered stars: 1 amine (or outer) side, 2 acyl side, 3 side chain; on linkers, the order of the positions; unused ones are H or OH. Square brackets hold non-standard residues; d marks the D form. Peptide text beside a SMILES is read from it. * marks the point of attachment. Pro(3R,4S-CMe2) = CC1(C)[C@@H]2[C@@H](C(=O)O)NC[C@@H]21; Pro(4,4-S(CH2)3S) = O=C(O)[C@@H]1CC2(CN1)SCCCS2; Pro(4,4-SCH2CH2S) = O=C(O)[C@@H]1CC2(CN1)SCCS2; X4 = O=C(C(=O)[*:2])C(CCC(F)(F)F)N[*:1]; Pro(4,4-Me2) = CC1(C)CN[C@H](C(=O)O)C1; Pro(4R-Me) = C[C@H]1CN[C@H](C(=O)O)C1; Isobutyloxycarbonyl = CC(C)COC(=O)*; X1 = O=C(C(=O)[*:2])C(CC1CC1)N[*:1]; X3 = CCCCC(N[*:1])C(=O)C(=O)[*:2]; Hyp = O=C(O)[C@@H]1C[C@@H](O)CN1; X2 = CCCC(N[*:1])C(=O)C(=O)[*:2]; Chg = N[C@H](C(=O)O)C1CCCCC1; Phg = N[C@H](C(=O)O)c1ccccc1; Tle = CC(C)(C)[C@H](N)C(=O)O; Boc = CC(C)(C)OC(=O)*; tBu = CC(C)(C)*

Experiments:
NS3 = NS3 (Hepatitis C virus, UniProt A3EZJ3); experiment: Binding affinity to HCV NS3 serine protease; parameters: species or system Hepacivirus hominis
Hepatitis C virus = experiment: Inhibition of HCV replicon; type: functional, Hepacivirus hominis
[1] = Selectivity for HCV NS3 serine protease over HNE
[2] = AUC in rat at 10 mg/kg, po; type: ADME, organism-based; parameters: dose 10 mg/kg, route oral; settings: plasma
[3] = Cmax in rat at 10 mg/kg, po; type: ADME, organism-based; parameters: dose 10 mg/kg, route oral; settings: in vivo
[4] = AUC in rat at 5 mg/kg, iv; type: ADME, organism-based; parameters: dose 5 mg/kg, route intravenous; settings: plasma
[5] = Half life in rat at 5 mg/kg, iv; type: ADME, organism-based; parameters: dose 5 mg/kg, route intravenous; settings: in vivo
[6] = Clearance in rat; type: ADME, organism-based; settings: in vivo
[7] = Oral bioavailability in rat at 10 mg/kg, po; type: ADME, organism-based; settings: in vivo
[8] = AUC in rat at 10 mg/kg, sc; type: ADME, organism-based; parameters: dose 10 mg/kg, route subcutaneous; settings: plasma
[9] = Cmax in rat at 10 mg/kg, sc; type: ADME, organism-based; parameters: dose 10 mg/kg, route subcutaneous; settings: in vivo
[10] = Oral bioavailability in rat at 10 mg/kg, sc; type: ADME, organism-based; settings: in vivo, subcutaneous
[11] = AUC in monkey at 3 mg/kg, po; type: ADME, organism-based, Macaca mulatta; parameters: dose 3 mg/kg, route oral; settings: rhesus monkey, plasma
[12] = Cmax in monkey at 3 mg/kg, po; type: ADME, organism-based, Macaca mulatta; parameters: dose 3 mg/kg, route oral; settings: rhesus monkey, in vivo
[13] = AUC in monkey at 1 mg/kg, iv; type: ADME, organism-based, Macaca mulatta; parameters: dose 1 mg/kg, route intravenous; settings: rhesus monkey, plasma
[14] = Half life in monkey at 1 mg/kg, iv; type: ADME, organism-based, Macaca mulatta; parameters: dose 1 mg/kg, route intravenous; settings: rhesus monkey, in vivo
[15] = Clearance in monkey; type: ADME, organism-based, Macaca mulatta; settings: rhesus monkey, in vivo
[16] = Oral bioavailability in monkey at 3 mg/kg, po; type: ADME, organism-based, Macaca mulatta; settings: rhesus monkey, in vivo
[17] = AUC in monkey at 1 mg/kg, sc; type: ADME, organism-based, Macaca mulatta; parameters: dose 1 mg/kg, route subcutaneous; settings: rhesus monkey, plasma
[18] = Cmax in monkey at 1 mg/kg, sc; type: ADME, organism-based, Macaca mulatta; parameters: dose 1 mg/kg, route subcutaneous; settings: rhesus monkey, in vivo
[19] = Oral bioavailability in monkey at 1 mg/kg, sc; type: ADME, organism-based, Macaca mulatta; settings: rhesus monkey, in vivo, subcutaneous

Chain of NS3 (A3EZJ3 whole entry): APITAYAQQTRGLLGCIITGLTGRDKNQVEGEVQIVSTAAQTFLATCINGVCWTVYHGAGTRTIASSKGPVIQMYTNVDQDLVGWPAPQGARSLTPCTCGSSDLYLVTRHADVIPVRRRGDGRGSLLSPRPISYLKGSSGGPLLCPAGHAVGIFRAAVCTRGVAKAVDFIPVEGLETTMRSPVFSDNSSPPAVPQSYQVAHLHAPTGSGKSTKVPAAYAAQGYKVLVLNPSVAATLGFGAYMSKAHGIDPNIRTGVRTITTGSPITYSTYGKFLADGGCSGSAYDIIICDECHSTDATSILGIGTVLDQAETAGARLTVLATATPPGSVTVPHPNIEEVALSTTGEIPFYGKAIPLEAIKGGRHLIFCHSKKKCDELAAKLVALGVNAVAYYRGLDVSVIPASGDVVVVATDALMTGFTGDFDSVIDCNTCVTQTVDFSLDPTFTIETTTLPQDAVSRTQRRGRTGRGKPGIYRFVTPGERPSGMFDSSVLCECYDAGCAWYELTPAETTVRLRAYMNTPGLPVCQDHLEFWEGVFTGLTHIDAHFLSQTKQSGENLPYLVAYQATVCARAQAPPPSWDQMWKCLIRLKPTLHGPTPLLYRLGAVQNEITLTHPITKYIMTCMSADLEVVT

Compound | Ki (NS3) | IC90 (Hepatitis C virus) | Selectivity ratio [1] | also measured
CCCCC(NC(=O)[C@@H]1[C@@H]2[C@H](CN1C(=O)[C@@H](NC(=O)OC(C)(C)C)C(C)(C)C)C2(C)C)C(=O)C(=O)NCC(=O)N[C@H](C(=O)N(C)C)c1ccccc1 (stereo partly drawn) (Boc-[Tle][Pro(3R,4S-CMe2)][X3]G[Phg]-NMe2) | 10 nM | 400 nM | 964 | 
CCCC(NC(=O)[C@@H]1CC(C)(C)CN1C(=O)[C@@H](NC(=O)OCC(C)C)C(C)(C)C)C(=O)C(=O)NCC(=O)N[C@H](C(=O)N(C)C)c1ccccc1 (some centres undefined) (Isobutyloxycarbonyl-[Tle][Pro(4,4-Me2)][X2]G[Phg]-NMe2) | 36 nM |  |  | 
CN(C)C(=O)[C@@H](NC(=O)CNC(=O)C(=O)C(CC1CC1)NC(=O)[C@@H]1[C@@H]2[C@H](CN1C(=O)[C@@H](NC(=O)OC(C)(C)C)C(C)(C)C)C2(C)C)c1ccccc1 (stereo partly drawn) (Boc-[Tle][Pro(3R,4S-CMe2)][X1]G[Phg]-NMe2) | 3.8 nM | 100 nM | 1000 | AUC [2]: 0.35 µM·h; Cmax [3]: 120 nM; AUC [4]: 4.7 µM·h; half-life [5]: 5.2 h; clearance [6]: 24 mL/min/kg; bioavailability [7]: 4%; AUC [8]: 19.5 µM·h; Cmax [9]: 4370 nM; bioavailability [10]: 100%; AUC [11]: 0.03 µM·h; Cmax [12]: 30 nM; AUC [13]: 3.4 µM·h; half-life [14]: 5.3 h; clearance [15]: 6.9 mL/min/kg; bioavailability [16]: 1%; AUC [17]: 5.6 µM·h; Cmax [18]: 1600 nM; bioavailability [19]: 100%
CCCC(NC(=O)[C@@H]1C[C@@H](C)CN1C(=O)[C@@H](NC(=O)OCC(C)C)C(C)(C)C)C(=O)C(=O)NCC(=O)N[C@H](C(=O)N(C)C)c1ccccc1 (stereo partly drawn) (Isobutyloxycarbonyl-[Tle][Pro(4R-Me)][X2]G[Phg]-NMe2) | 140 nM |  |  | 
CCCC(NC(=O)[C@@H]1C[C@@H](OC(C)(C)C)CN1C(=O)[C@@H](NC(=O)OCC(C)C)C(C)(C)C)C(=O)C(=O)NCC(=O)N[C@H](C(=O)N(C)C)c1ccccc1 (some centres undefined) (Isobutyloxycarbonyl-[Tle][Hyp](tBu)[X2]G[Phg]-NMe2) | 19 nM | 2000 nM |  | 
CN(C)C(=O)[C@@H](NC(=O)CNC(=O)C(=O)C(CCC(F)(F)F)NC(=O)[C@@H]1[C@@H]2[C@H](CN1C(=O)[C@@H](NC(=O)OC(C)(C)C)C(C)(C)C)C2(C)C)c1ccccc1 (stereo partly drawn) (Boc-[Tle][Pro(3R,4S-CMe2)][X4]G[Phg]-NMe2) | 2 nM | 400 nM | 4600 | 
CCCC(NC(=O)[C@@H]1C[C@@H](SC(C)(C)C)CN1C(=O)[C@@H](NC(=O)OCC(C)C)C(C)(C)C)C(=O)C(=O)NCC(=O)N[C@H](C(=O)N(C)C)c1ccccc1 (some centres undefined) | 120 nM |  |  | 
CCCC(NC(=O)[C@@H]1[C@@H]2[C@H](CN1C(=O)[C@@H](NC(=O)OC(C)(C)C)C(C)(C)C)C2(C)C)C(=O)C(=O)NCC(=O)N[C@H](C(=O)N(C)C)c1ccccc1 (stereo partly drawn) (Boc-[Tle][Pro(3R,4S-CMe2)][X2]G[Phg]-NMe2) | 14 nM | 250 nM | 147 | 
CCCC(NC(=O)[C@@H]1[C@H]2CC(C)(C)O[C@H]2CN1C(=O)[C@@H](NC(=O)OCC(C)C)C(C)(C)C)C(=O)C(=O)NCC(=O)N[C@H](C(=O)N(C)C)c1ccccc1 (some centres undefined) | 10 nM | 1800 nM |  | 

More lines, main results first:

Ki (NS3) | IC90 (Hepatitis C virus) | Selectivity ratio [1] | Compound | also measured
10000 nM |  |  | CCCC(NC(=O)[C@@H]1CCCN1C(=O)[C@@H](NC(=O)OCC(C)C)C1CCCCC1)C(=O)C(=O)NCC(=O)N[C@H](C(=O)N(C)C)c1ccccc1 (some centres undefined) (Isobutyloxycarbonyl-[Chg]P[X2]G[Phg]-NMe2) | 
26 nM |  |  | CCCC(NC(=O)[C@@H]1CC2(CN1C(=O)[C@@H](NC(=O)OCC(C)C)C1CCCCC1)SCCS2)C(=O)C(=O)NCC(=O)N[C@H](C(=O)N(C)C)c1ccccc1 (some centres undefined) (Isobutyloxycarbonyl-[Chg][Pro(4,4-SCH2CH2S)][X2]G[Phg]-NMe2) | 
15 nM | 900 nM |  | CCCC(NC(=O)[C@@H]1[C@H]2CC(C)(C)C[C@H]2CN1C(=O)[C@@H](NC(=O)OCC(C)C)C(C)(C)C)C(=O)C(=O)NCC(=O)N[C@H](C(=O)N(C)C)c1ccccc1 (some centres undefined) | 
28 nM |  |  | CCCC(NC(=O)[C@@H]1CC2(CN1C(=O)[C@@H](NC(=O)OCC(C)C)C1CCCCC1)SCCCS2)C(=O)C(=O)NCC(=O)N[C@H](C(=O)N(C)C)c1ccccc1 (some centres undefined) (Isobutyloxycarbonyl-[Chg][Pro(4,4-S(CH2)3S)][X2]G[Phg]-NMe2) | 
16 nM | 350 nM | 81 | CCCC(NC(=O)[C@@H]1[C@@H]2[C@H](CN1C(=O)[C@@H](NC(=O)OCC(C)C)C(C)(C)C)C2(C)C)C(=O)C(=O)NCC(=O)N[C@H](C(=O)N(C)C)c1ccccc1 (stereo partly drawn) (Isobutyloxycarbonyl-[Tle][Pro(3R,4S-CMe2)][X2]G[Phg]-NMe2) | 
26 nM |  |  | CCCC(NC(=O)[C@@H]1CC2(CCCC2)CN1C(=O)[C@@H](NC(=O)OCC(C)C)C1CCCCC1)C(=O)C(=O)NCC(=O)N[C@H](C(=O)N(C)C)c1ccccc1 (some centres undefined) | 
10 nM | 200 nM | 4 | CCCC(NC(=O)[C@@H]1[C@@H]2[C@H](CN1C(=O)[C@@H](NC(=O)OCC(C)C)C1CCCCC1)C2(C)C)C(=O)C(=O)NCC(=O)N[C@H](C(=O)N(C)C)c1ccccc1 (stereo partly drawn) (Isobutyloxycarbonyl-[Chg][Pro(3R,4S-CMe2)][X2]G[Phg]-NMe2) | 
